Reference: US20120225889A1, “USE OF MACROCYCLIC LACTONE DERIVATIVES FOR THE TREATMENT OF INFLAMMATORY DISORDERS” (PIRAMAL LIFE SCIENCES LIMITED, priority 2010, published 2012)

How the values were obtained:
IL-6 [1] = assay: Cytokine release assay in hPBMCs: IL-6; format: cell-based; settings: Homo sapiens; Table 3: PHA-PMA induced hPBMC's, 48 h; read-out: IL-6 IC50
Experimental: (§1) hPBMCs were obtained from healthy donors by centrifugation of heparinized venous blood over Ficoll/Hypaque solution (Histopaque-1077, Sigma, USA). Isolated hPBMCs were suspended in RPMI 1640 culture medium supplemented with 10% FBS and seeded at a density of 50,000 cells/well in a 96-well plate (Nunc, USA). The cells were incubated at 37° C., 5% CO2 for a period of 24 h. These cells were used for the lymphocyte proliferation as well as cytokine release assay.
(§2) The plated cells were treated with different concentrations of the test compound (prepared as mM stock in DMSO and diluted with DMSO to achieve the following final concentrations in the assay: 100, 10, 1, 0.1, 0.01, 0.001, 0.0001, 0.00001 and 0.000001 μM) and incubated for 30 min. The cells were then stimulated with PHA (prepared as 1 mg/mL stock in RPMI 1640 culture medium and used at a final concentration of 5 μg/mL). FK506 was used as a standard. The plates were incubated at 37° C., 5% CO2 for 48 h. The cytokines in the supernatant collected were detected using ELISA kit (BD biosciences, USA). The cytokines evaluated in the assay were TNF-α, IL-2, IL-6, and IFN-γ.

TNF-α [2] = assay: Screening in LPS stimulated THP-1 cells: TNF-α; format: cell-based; settings: Homo sapiens, 24 h, ELISA
Experimental: (§3) IL-6 (BD Biosciences, USA) production by LPS (Escherchia coli 0127:B8, Sigma, USA) in THP-1 cells (ATCC number: TIB202) was designed as in reference, Journal of Immunology, 151, 5631-5638, (1993), the disclosure of which is incorporated by reference for the teaching of the assay.
(§4) THP-1 cells were cultured in RPMI 1640 culture medium (Gibco BRL, UK) containing 100 U/mL penicillin and […] streptomycin, (100× solution, Sigma, USA) containing 10% FBS (JRH Biosciences, USA). 25,000 cells were seeded per well in 96-well plate (Nunc, USA). The cells were differentiated with PMA (Sigma, USA, prepared as 100 μg/mL stock in RPMI and was diluted to 5 ng/mL). The test compound (prepared as 20 mM stock in DMSO and diluted with DMSO to achieve the following final concentrations in the assay: 100, 10, 1, 0.1, 0.01, 0.001 and 0.0001 μM) or vehicle (0.5% DMSO) were added to the cells and the cells were incubated for 30 min at 37° C. LPS (Sigma, USA, prepared as 1 mg/mL stock in PBS) was added to achieve a final concentration of 1 μg/mL. Plates were incubated at 37° C. for 24 h at 5% CO2. Supernatants were harvested, and assayed for TNF-α and IL-6 by ELISA as described by the manufacturer (BD Biosciences, USA). Percent inhibition of cytokine release compared to the control was calculated. The IC50 values were calculated by a nonlinear regression method.

IL-6 [3] = assay: Screening in LPS stimulated THP-1 cells: IL-6; format: cell-based; settings: Homo sapiens, 24 h, ELISA
Experimental: as §3, §4

IL-2 = assay: Cytokine release assay in hPBMCs: IL-2; format: cell-based; settings: Homo sapiens; Table 3: PHA-PMA induced hPBMC's, 48 h; read-out: IL-2 IC50
Experimental: as §1, §2

IFN-γ = assay: Cytokine release assay in hPBMCs: IFN-γ; format: cell-based; settings: Homo sapiens; Table 3: PHA-PMA induced hPBMC's, 48 h; read-out: IFN-γ IC50
Experimental: as §1, §2

TNF-α [4] = assay: Cytokine release assay in hPBMCs: TNF-α; format: cell-based; settings: Homo sapiens; Table 3: PHA-PMA induced hPBMC's, 48 h; read-out: TNF-α IC50
Experimental: as §1, §2

IL-6 [5] = assay: Human monocyte assay (LPS-induced): IL-6; format: cell-based; settings: LPS stimulated human monocytes, 5 h
Source text: The assay was designed as in reference, Physiological Research, 52, 593-598, (2003), the disclosure of which is incorporated by reference for the teaching of the assay.
The objective of the assay is to determine whether compounds of the present invention—mediated inhibition of LPS-induced cytokines from monocytic THP-1 cell line translates to physiologically relevant human cells. Accordingly, the effect of compounds of the present invention on LPS—induced cytokine production from freshly isolated human monocytes was ascertained.
Peripheral blood was collected from healthy donors into potassium EDTA vacutainer tubes (BD Biosciences, USA). hPBMCs were isolated using density gradient separation (Histopaque-1077; Sigma, USA) and suspended in assay medium which is RPMI culture medium (Sigma, USA) containing 10% heat inactivated FBS (JRH Biosciences, Australia), 100 U/mL penicillin (Sigma, USA) and […] streptomycin (Sigma, USA). Monocytes in the hPBMCs were counted using a Coulter Counter following which the cells were resuspended at 2×10^5 monocytes/mL of assay medium. A cell suspension containing 2×10^4 monocytes was aliquoted per well of a 96-well plate (Nunc, USA). Subsequently, the hPBMCs were incubated for 4-5 h at 37° C., 5% CO2. During the incubation, the monocytes adhered to the bottom of 96-well plate. Following the incubation, the non-adherent lymphocytes were washed and assay medium was added to adherent monocytes. After 48 h of incubation at 37° C., 5% CO2, monocytes were pre-treated with various concentrations of test compound (prepared as 20 mM stock in DMSO; 1 μL of […] concentrated solution of test compound was dissolved in 200 μL cell suspension to achieve a final concentration of 0.03, 0.1, 0.3, 1, 3, 10, 30 and 100 μM) or vehicle (0.5% DMSO) or 10 μM dexamethasone (standard IL-6 and TNF-α inhibitor, Sigma, USA) for 30 min at 37° C., 5% CO2 and stimulated with 1 μg/mL LPS (Escherchia coli 0111:B4, Sigma, USA). The cells were then incubated for 5 h at 37° C., 5% CO2 following which supernatants were collected, stored at −70° C. and were assayed later for IL-6, and TNF-α by ELISA (OptiEIA ELISA sets, BD Biosciences, USA). The IC50 values were calculated by a nonlinear regression method using Graph Pad software (Prism 3.03).

[6] = tested on: DBA/1J mice with collagen induced arthritis; assay: Collagen-induced arthritis in mice; format: in vivo; settings: compound of example 7 5 mg/kg, s.c., n=10; Enbrel 3 mg/kg, s.c., n=6; vehicle control 15.14+1.0
Experimental: The experiment was designed as in reference, J. Experimental Medicine, 162, 637-646 (1985), the disclosure of which is incorporated by reference for the teaching of the experiment.
Male DBA/1J mice with body weight range of 18-22 g, aged 8-10 weeks were immunized with an emulsion equivalent to 200 μg of type II collagen (Elastin products, USA) in Freund's Complete Adjuvant (Sigma, USA), injected intradermally at the base of the tail. The animals were boosted with 200 μg of freshly prepared typeII collagen emulsion emulsified in Freund's Complete Adjuant (Sigma, USA) on day 21. A group of naïve mice was also maintained alongside. Naïve animals are the animals which are neither immunized for induction of arthritis nor do they receive any treatment. This group is maintained to take care of the normal changes in the paw thickness with age.
From day 23, mice were examined daily once for the signs of rheumatoid arthritis, using the articular index and paw thickness as parameters. Articular index scoring was performed employing the following criteria:
• 0: No redness or swelling • 1: Redness, but no swelling • 2: Redness and swelling of the paw • 3: Redness and severe swelling of the paw Hind limbs: Scale 0-4 • 0: No redness or swelling • 1: Redness and mild swelling of paw • 2: Redness and moderate swelling of paw and/or swelling of at least one of the digits • 3: Redness and moderate/severe swelling of paw, swelling of ankle joint and/or swelling of one or more digits • 4: Redness and severe swelling of paw, digits and ankle joint, with joint stiffness Mice with a minimum hind paw score of 2, of even one paw, were inducted into the study. Mice were randomized into the various study groups, each group having at least eight animals, and were administered the vehicle (0.5% CMC, 10 mL/kg p.o. and s.c. twice daily), the test compound (5 mg/kg, p.o. and s.c., twice daily) and standard compound Enbrel (Wyeth Limited, UK), 3 mg/kg, s.c., once daily. The test compound was administered as a suspension in CMC. The requisite quantity of the compound was accurately weighed and was hand-pulverized using pestle-mortar. After mixing with minimum quantity of Tween 80 necessary to wet the compound, requisite quantity of 0.5% CMC solution was added and the compound was ground with CMC till the uniform suspension was obtained. Standard compound ‘Enbrel’ was used as an aqueous solution. The dosing of the compounds was done for 12 continuous days.
The following parameters were observed and recorded daily, • 1. Body weight • 2. Articular index • 3. Paw thickness of hind limbs only, in mm using a tension free calipers • 4. Any significant observation regarding the condition of the animals.
On 13th day morning, 1 h after the compound treatment, the animals were sacrificed, blood withdrawn, and plasma collected for drug level analyses. Also, the hind limbs of all the animals were preserved for histopathological evaluations.

Molecule | IC50 (IL-6 [1]) | IC50 (TNF-α [2]) | IC50 (IL-6 [3]) | IC50 (IL-2) | IC50 (IFN-γ) | IC50 (TNF-α [4]) | IC50 (IL-6 [5]) | Histological score of the section of paws [6]
C/C=C/C(O)C(C)/C=C/C(=NOCC(=O)O)C(C)C(O)C(C)C1OC(=O)/C(OC)=C/C(C)=C/C(C)C(O)C(CC)C(O)C(C)C/C(C)=C/C=C/C1OC (stereo in doubt) [Compound of example 10, ((Z)-((6E,10E)-2-((4E,6E,14E,16Z)-11-Ethyl-10,12-dihydroxy-3,17-dimethoxy-7,9,13,15-tetramethyl-18-oxooxacyclooctadeca-4,6,14,16-tetraen-2-yl)-3,9-dihydroxy-4,8-dimethyldodeca-6,10-dien-5-ylidene)aminooxy)acetic acid] | 20 nM | > 30 µM | 2300 nM | 200 nM | 2 µM | 200 nM | – | –
C/C=C/C(O)C(C)/C=C/C(=NOCC(=O)N1CCN(C)CC1)C(C)C(O)C(C)C1OC(=O)/C(OC)=C/C(C)=C/C(C)C(O)C(CC)C(O)C(C)C/C(C)=C/C=C/C1OC (stereo in doubt) [Compound of example 11, (3Z,5E,13E,15E)-18-((5Z,6E,10E)-3,9-Dihydroxy-4,8-dimethyl-5-(2-(4-methylpiperazin-1-yl)-2-oxoethoxyimino)dodeca-6,10-dien-2-yl)-9-ethyl-8,10-dihydroxy-3,17-dimethoxy-5,7,11,13-tetramethyloxacyclooctadeca-3,5,13,15-tetraen-2-one] | 10 nM | > 30 µM | 300 nM | 50 nM | 5 µM | 50 nM | > 10000 nM | –
C/C=C/C(O)C(C)/C=C/C(=NOCC(=O)N1CCCCC1)C(C)C(O)C(C)C1OC(=O)/C(OC)=C/C(C)=C/C(C)C(O)C(CC)C(O)C(C)C/C(C)=C/C=C/C1OC (stereo in doubt) [Compound of example 13, (3Z,5E,13E,15E)-18-((5Z,6E,10E)-3,9-Dihydroxy-4,8-dimethyl-5-(2-oxo-2-(piperidin-1-yl)ethoxyimino)dodeca-6,10-dien-2-yl)-9-ethyl-8,10-dihydroxy-3,17-dimethoxy-5,7,11,13-tetramethyloxacyclooctadeca-3,5,13,15-tetraen-2-one] | 500 nM | > 30 µM | 200 nM | 200 nM | 10 µM | 20 nM | 1400 nM | –
C/C=C/C(O)C(C)/C=C/C(=NOCC(=O)N1CCC(N2CCCCC2)CC1)C(C)C(O)C(C)C1OC(=O)/C(OC)=C/C(C)=C/C(C)C(O)C(CC)C(O)C(C)C/C(C)=C/C=C/C1OC (stereo in doubt) [Compound of example 14, (3Z,5E,13E,15E)-18-((5Z,6E,10E)-5-(2-(1,4′-Bipiperidin-1′-yl)-2-oxoethoxyimino)-3,9-dihydroxy-4,8-dimethyldodeca-6,10-dien-2-yl)-9-ethyl-8,10-dihydroxy-3,17-dimethoxy-5,7,11,13-tetramethyloxacyclooctadeca-3,5,13,15-tetraen-2-one] | 10 nM | 18 µM | 130 nM | 5 nM | 0.02 µM | 20 nM | 150 nM | –
C/C=C/C(O)C(C)/C=C/C(=O)NC(C)C(O)C(C)C1OC(=O)/C(OC)=C/C(C)=C/C(C)C(O)C(CC)C(O)C(C)C/C(C)=C/C=C/C1OC (stereo not drawn) [Compound of example 16, (2E,6E)-N-(4-((4E,6E,14E,16Z)-11-Ethyl-10,12-dihydroxy-3,17-dimethoxy-7,9,13,15-tetramethyl-18-oxooxacyclooctadeca-4,6,14,16-tetraen-2-yl)-3-hydroxypentan-2-yl)-5-hydroxy-4-methylocta-2,6-dienamide] | – | > 100 µM | 30 nM | – | – | – | – | –
Enbrel | – | – | – | – | – | – | – | 5.8+0.95
